Starred links: 1 amine or outer side, 2 acyl side, 3 side chain; linkers in the order of their positions; H or OH if unused. Non-standard residues stand in square brackets, D forms with d. Residues, ends and D or L forms follow the SMILES beside them. No end group written: not given here. ξ: configuration not given here. *: point of attachment. X1 = CC(=O)N[C@@H]1[C@@H](O)[C@@H](O)[C@@H](C=NO[C@@H]2O[C@H](CO)[C@H](O)[C@H](O)[C@H]2O)O[C@@H]1*; X2 = CC(=O)N[C@H]1[C@@H](ON=C(C)C[C@H](N[*:1])C(=O)[*:2])O[C@H](CO)[C@H](O)[C@@H]1O; αGalNAc = CC(=O)N[C@@H]1[C@@H](O)[C@@H](O)[C@@H](CO)O[C@@H]1*; Thr(3ξ) = CC(O)[C@H](N)C(=O)O
How the values were obtained:
bacterial growth = details: cited from earlier work; for enhancement of bacteriostatic potency by the O-linked glycan (GalNAc residue) at Thr11: glycosylated vs unglycosylated peptide
E. coli D22 [1] = assay: growth inhibition assay (Example II); format: cell-based; details: for IC50: E. coli D22 in LB media with streptomycin, 24 h at rt, absorbance at 415 nm, read-out: IC50 in blocking bacterial growth
Experimental: 10. The growth inhibition assay was performed essentially as described by Bulet et al.^3 Sterile 96-well plates were used, with a final volume of 100 μL per well. This volume consisted of 90 μL of mid-logarithmnic phase culture of E. coli D22 in LB media containing streptomycin (50 μg/mL), added to 10 μL of serially diluted peptide (native drosocin (1), unglycosylated drosocin or neoglycopeptide 2) in water. Final peptide concentrations ranged from 10^−8 to 10^−5 M. Plates were incubated for 24 h at rt. Bacterial growth was determined by measuring the absorbance at 415 nm on a BioRad 550 microplate reader. Measurements were taken at t=0 h and t=24 h, and the change in absorbance (optical density) was recorded.

E. coli D22 [2] = assay: Bacterial growth inhibition assays (Example IV); format: cell-based
Experimental: General methods: Galactose oxidase (EC 1.1.3.9) (450 units/mg) was purchased from Sigma. All chemical reagents were obtained from commercial suppliers and used without further purification. For flash chromatography, 230-400 mesh silica gel 60 (E. Merck No. 9385) was employed. Analytical thin layer chromatography (tlc) was conducted on Analtech Uniplate silica gel plates with detection by ceric ammonium molybdate and/or by UV light. Reversed-phase high pressure liquid chromatography (RP-HPLC) was performed on a Rainin Dynamax SD-200 system using Microsorb and Dynamax C18 reversed-phase columns (analytical: 4.6 mm ID×25 cm, 1 mL/min; semi-preparative: 10 mm ID×25 cm, 3 mL/min), and ultraviolet detection (230 nm) was performed with a Rainin Dynamax UV-1 detector. The E. coli strain D22 used in bacterial growth inhibition assays was obtained from the E. Coli Genetic Stock Center at Yale University.
Bacterial growth inhibition assays. […] Peptide concentrations were determined by measuring dry weight, and assuming 80% of that weight was peptide and the remainder water and salts. […] Growth was determined by measuring the absorbance at 595 nm on a BioRad 550 microplate reader. Percent inhibition was defined as ((Ao−Ax)/Ao)*100), where Ao was the absorbance of a control well lacking peptide and Ax was the absorbance of a well with peptide.

GKPRPYSPRPTSHPRPIRV [drosocin]
enhancement of potency in blocking bacterial growth by a single O-linked disaccharide (Gal-GalNAc) at Thr11 (bacterial growth; depending on the target bacterial strain): 2-8 fold | enhancement of bacteriostatic potency by the O-linked glycan (GalNAc residue) at Thr11 (bacterial growth): five-fold

H-GKPRPYSPRPTSHPRPIRV-OH [unglycosylated drosocin]
IC50 (E. coli D22 [1]): 630 ± 50 nM | IC50 (E. coli D22 [2]; E. coli D22 in LB media with streptomycin, 6 h at 25° C., absorbance at 595 nm, read-out: IC50 in blocking bacterial growth): 400 ± 50 nM

CC[C@H](C)[C@H](NC(=O)[C@@H]1CCCN1C(=O)[C@H](CCCNC(=N)N)NC(=O)[C@@H]1CCCN1C(=O)[C@H](Cc1c[nH]cn1)NC(=O)[C@H](CO)NC(=O)[C@@H](NC(=O)[C@@H]1CCCN1C(=O)[C@H](CCCNC(=N)N)NC(=O)[C@@H]1CCCN1C(=O)[C@H](CO)NC(=O)[C@H](Cc1ccc(O)cc1)NC(=O)[C@@H]1CCCN1C(=O)[C@H](CCCNC(=N)N)NC(=O)[C@@H]1CCCN1C(=O)[C@H](CCCCN)NC(=O)CN)[C@@H](C)O[C@H]1O[C@H](C=NO[C@@H]2O[C@H](CO)[C@H](O)[C@H](O)[C@H]2O)[C@H](O)[C@H](O)[C@H]1NC(C)=O)C(=O)N[C@@H](CCCNC(=N)N)C(=O)N[C@H](C(=O)O)C(C)C [Glycopeptide 5] (H-GKPRPYSPRPT(X1)SHPRPIRV-OH)
potency in blocking bacterial growth relative to unglycosylated drosocin (E. coli D22 [2]; E. coli D22, 6 h at 25° C.): 3 to 4 fold

CC[C@H](C)[C@H](NC(=O)[C@@H]1CCCN1C(=O)[C@H](CCCNC(=N)N)NC(=O)[C@@H]1CCCN1C(=O)[C@H](Cc1c[nH]cn1)NC(=O)[C@H](CO)NC(=O)[C@@H](NC(=O)[C@@H]1CCCN1C(=O)[C@H](CCCNC(=N)N)NC(=O)[C@@H]1CCCN1C(=O)[C@H](CO)NC(=O)[C@H](Cc1ccc(O)cc1)NC(=O)[C@@H]1CCCN1C(=O)[C@H](CCCNC(=N)N)NC(=O)[C@@H]1CCCN1C(=O)[C@H](CCCCN)NC(=O)CN)C(C)O[C@H]1O[C@H](CO)[C@H](O)[C@H](O)[C@H]1NC(C)=O)C(=O)N[C@@H](CCCNC(=N)N)C(=O)N[C@H](C(=O)O)C(C)C (stereo partly drawn) [native drosocin (1), H2N-Gly-Lys-Pro-Arg-Pro-Tyr-Ser-Pro-Arg-Pro-Thr(α-D-GalNAc)-Ser-His-Pro-Arg-Pro-Ile-Arg-Val-OH] (H-GKPRPYSPRP[Thr(3ξ)](αGalNAc)SHPRPIRV-OH)
IC50 (E. coli D22 [1]): 100 ± 20 nM | enhancement of bacteriostatic potency by the O-linked glycan (GalNAc residue) at Thr11 (bacterial growth): approximately five-fold

CC[C@H](C)[C@H](NC(=O)[C@@H]1CCCN1C(=O)[C@H](CCCNC(=N)N)NC(=O)[C@@H]1CCCN1C(=O)[C@H](Cc1c[nH]cn1)NC(=O)[C@H](CO)NC(=O)[C@H](CC(C)=NO[C@H]1O[C@H](CO)[C@H](O)[C@H](O)[C@H]1NC(C)=O)NC(=O)[C@@H]1CCCN1C(=O)[C@H](CCCNC(=N)N)NC(=O)[C@@H]1CCCN1C(=O)[C@H](CO)NC(=O)[C@H](Cc1ccc(O)cc1)NC(=O)[C@@H]1CCCN1C(=O)[C@H](CCCNC(=N)N)NC(=O)[C@@H]1CCCN1C(=O)[C@H](CCCCN)NC(=O)CN)C(=O)N[C@@H](CCCNC(=N)N)C(=O)N[C@H](C(=O)O)C(C)C [neoglycopeptide 2] (H-GKPRPYSPRP[X2]SHPRPIRV-OH)
potency in blocking bacterial growth relative to unglycosylated drosocin (E. coli D22 [1]; E. coli D22, 24 h at rt): four-fold more potent | IC50 (E. coli D22 [1]): 160 ± 40 nM

— US6465612B1, “Synthetic peptides, conjugation reagents and methods” (The Regents of the University of California, priority 1998, dated 2002)
